Data as given in article PMC12408761, “Impact of physical activity on ethoxy- and propoxypropanol human toxicokinetics in vivo” (Archives of Toxicology, 2025).
Where two headings read alike, the source gives them in different places.

Legend:
[1] = Controlled human inhalation exposure (4 h in exposure chamber, at rest or with moderate physical activity): toxicokinetics in blood, urine and exhaled breath; format: in vivo; conditions: for Time at which Cmax was reached (Tmax): time after start of exposure; for average Cmax in exhaled breath: for a same concentration of exposure; for Time at which Cmax was reached: urine and exhaled breath; for Increase of urinary absorption rate with physical activity versus rest: first 2 h of exposure
Method: All exposure sessions were performed under controlled conditions at the Department of Occupational and Environmental Health, Center for Primary Care and Public Health (Unisanté), University of Lausanne, in Switzerland. PGEE or PGPE air concentrations were generated in a 12 m^3 exposure chamber (Guillemin [1975]) and monitored electronically (Lab VIEW software, National Instruments Corporation, Texas, USA) with a portable infrared spectroscopy gas analyzer for ambient air analysis (GASMET™ analyzer DX-4040 Gasmet Oy, Helsinki technologies, Finland) (Devanthery et al. [2003]; Tomicic et al. [2011]). During each exposure session, the participant spent 4 h inside the exposure chamber, and then 2 h outside in a solvent-free area. Each participant took part in four different exposure sessions comprising four different experimental conditions. Three sessions were performed at rest at either 25, 30, and 35 ppm of PGEE or 15, 20, and 25 ppm of PGPE. The fourth session was performed with moderate physical activity at 35 ppm of PGEE or 25 ppm of PGPE (Fig. 1).
The air concentrations were below the existing OEL for PGEE, i.e., 50 ppm. Given the absence of an OEL for PGPE, the chosen concentrations were previously tested to ensure odor tolerance for participants. The participants performed the physical activity at 1.5 W/kg on an ergonomic bicycle (Corival, Lode B.V., Groningen, The Netherlands) for 30 min twice during the same exposure session: the first without solvent exposure and the second with PGEE or PGPE. The physical activity design was adapted after discussion with sports science researchers from the University of Lausanne. A minimum of 48 h between two exposure sessions was determined to avoid possible cumulative exposure (Borgatta et al. [2022]). Blood, urine, and exhaled breath samples were collected before, during, and after all exposure sessions. The timing of sample collection was based on previous studies and protocol testing.
The blood samples were collected with an intravenous catheter inserted in the participant’s forearm by a research nurse into glass tubes (Vacutainers® NH Heparine Sodium, Becton Dickinson AG, Basel, Switzerland). A first blood sample was collected before the exposure session in a solvent-free area and used as baseline value. The timing following the first blood sample was 30, 120, 180, 240, 255, 300, and 360 min after the exposure to PGE started. The last blood sample was collected 24 h post-exposure. The blood samples were kept in the dark at 4 °C until analysis.
The participants were asked to provide a urine sample before the exposure session (solvent-free area, baseline) and then, every 2 h over 6 h. The participants continued to collect their urine (ad lib) samples at home for additional 24 h and bring them back in a cooler with cooling elements the day after the exposure session. They provided urine collection date, time, and total urinary volume. All urine samples were stored in polypropylene cups in the dark at 4 °C (Borgatta et al. [2021]). The cold storage is important to avoid any loss of substance as glycol ethers are volatile organic compounds.
The exhaled breath samples were collected using a non-invasive simple-to-use device for biological exposure monitoring of volatile organic compounds (BioVOC-2 Breath Sampler, Brechbühler, Schlieren, Switzerland). The last portion of expired breath (129 mL) was collected on thermal desorption (TD) tubes (Tenax® TA, Camsco, Böckten, Switzerland) from each participant. A first exhaled breath sample was collected before the exposure session in a solvent-free area (baseline). The timing following the first exhaled breath sample was 120, 240, 255, 260, 265, 270, 275 and 360 min after exposure had started and a last one 24 h post exposure. Exhaled breath samples were analyzed immediately after collection. […]

[2] = parameters: method as in Groeseneken et al. [1986], [1987]; conditions: humans; ref Groeseneken et al. [1986], [1987]; cited from earlier work
[3] = blood, at rest, 4 h inhalation, geometric mean ± SD
[4] = blood, physical activity, 35 ppm PGEE or 25 ppm PGPE, geometric mean ± SD
[5] = human, inhaled or intranasal, blood, at rest, 4 h inhalation (PGEE 25-35 ppm, PGPE 15-25 ppm), geometric mean ± SD
[6] = human, inhaled or intranasal, blood, at rest, 4 h inhalation, geometric mean ± SD, read-out: Cmax
[7] = human, inhaled or intranasal, urine, at rest, 4 h inhalation (PGEE 25-35 ppm, PGPE 15-25 ppm), geometric mean ± SD
[8] = human, inhaled or intranasal, urine, at rest, 4 h inhalation, geometric mean ± SD, read-out: Cmax
[9] = human, inhaled, blood, at rest, for a same concentration of exposure (25 ppm), read-out: average Cmax in blood
[10] = human, inhaled, blood, at rest, read-out: half-life in blood
[11] = human, inhaled, blood, physical activity (30 min, 1.5 W/kg), 35 ppm PGEE or 25 ppm PGPE, geometric mean ± SD
[12] = human, inhaled, blood, physical activity, 35 ppm PGEE or 25 ppm PGPE, geometric mean ± SD, read-out: Cmax
[13] = human, inhaled, exhaled breath, all exposure conditions, read-out: Half-life (converted)
[14] = human, inhaled, urine, physical activity (30 min, 1.5 W/kg), 35 ppm PGEE or 25 ppm PGPE, geometric mean ± SD
[15] = human, inhaled, urine, physical activity, 35 ppm PGEE or 25 ppm PGPE, geometric mean ± SD, read-out: Cmax
[16] = urine, at rest, 4 h inhalation, geometric mean ± SD
[17] = urine, physical activity, 35 ppm PGEE or 25 ppm PGPE, geometric mean ± SD

CCOCC(C)O (centres unmarked) [PGEE, propylene glycol ethyl ether]
Absorption (absorption rate) [1, 3]: 0.013 ± 0 µg/mL/h*ppm | Time at which Cmax was reached (Tmax) ([1]; blood, at rest): 240 min | Absorption (absorption rate) [1, 4]: 0.038 ± 0.004 µg/mL/h*ppm | Blood concentration following PGEE exposure compared to PGPE ([1]; blood, same concentration of exposure (25 ppm)): 1.3 fold | Share of total blood uptake quantified in exhaled breath (AUC exhaled breath / AUC blood) ([1]; exhaled breath): less than 0.5% | average Cmax in exhaled breath ([1]; exhaled breath, at rest): 2.81 ± 0.76 ppm | AUC [1, 5]: 7320 ng·h/mL | Cmax [1, 6]: 1070 ± 300 ng/mL | AUC [1, 7]: 5050 ng·h/mL | Cmax [1, 8]: 1070 ± 210 ng/mL | Cmax [1, 9]: 810 ± 80 ng/mL | half-life [1, 10]: 60 min | AUC [1, 11]: 16600 ng·h/mL | Cmax [1, 12]: 2760 ± 260 ng/mL | half-life [1, 13]: 2.88 min | half-life ([1]; human, inhaled, urine, all exposure conditions, read-out: Half-life (converted)): 78 min | AUC [1, 14]: 8820 ng·h/mL | Cmax [1, 15]: 1810 ± 470 ng/mL | Time at which Cmax was reached ([1]; all conditions): at the end of exposure | Absorption (absorption rate) [1, 16]: 0.010 ± 0.002 µg/mL/h*ppm | Increase of urinary absorption rate with physical activity versus rest ([1]; urine): 1.5 times | Absorption (absorption rate) [1, 17]: 0.014 ± 0.003 µg/mL/h*ppm

CCOCCO [EGEE, ethylene glycol ethyl ether]
exhalation as share of the total uptake [2]: less than 0.4%

CCCOCC(C)O (centres unmarked) [PGPE, propylene glycol propyl ether]
Absorption (absorption rate) [1, 3]: 0.011 ± 0 µg/mL/h*ppm | Time at which Cmax was reached (Tmax) ([1]; blood, at rest): 180 min | Absorption (absorption rate) [1, 4]: 0.024 ± 0.002 µg/mL/h*ppm | Share of total blood uptake quantified in exhaled breath (AUC exhaled breath / AUC blood) ([1]; exhaled breath): 1.1% | average Cmax in exhaled breath ([1]; exhaled breath, at rest): 2.25 ± 0.66 ppm | AUC [1, 5]: 2650 ng·h/mL | Cmax [1, 6]: 500 ± 130 ng/mL | AUC [1, 7]: 1910 ng·h/mL | Cmax [1, 8]: 450 ± 110 ng/mL | Cmax [1, 9]: 650 ± 90 ng/mL | half-life [1, 10]: 54 min | AUC [1, 11]: 5130 ng·h/mL | Cmax [1, 12]: 1230 ± 90 ng/mL | half-life [1, 13]: 2.28 min | half-life ([1]; human, inhaled, urine, all conditions, read-out: urinary half-life): 54 min | AUC [1, 14]: 3090 ng·h/mL | Cmax [1, 15]: 710 ± 140 ng/mL | Share of total blood uptake quantified in urine (AUC urine / AUC blood) ([1]; urine): 69.5% | Time at which Cmax was reached ([1]; all conditions): at the end of exposure | half-life ([1]; urine, all exposure conditions): 54 min | Absorption (absorption rate) [1, 16]: 0.007 ± 0.0017 µg/mL/h*ppm | Increase of urinary absorption rate with physical activity versus rest ([1]; urine): did not differ significantly | Absorption (absorption rate) [1, 17]: 0.0087 ± 0.0008 µg/mL/h*ppm

CCOCCOC(C)=O [EGEEAc]
exhalation as share of the total uptake [2]: less than 0.4%
